The values that follow come from patent US20240108740A1, “THERAPEUTIC COMPOSITIONS INCLUDING SPN10 AND USES THEREOF” (Stealth BioTherapeutics Inc., priority 2022, published 2024).

The structures appear in SMILES notation. Residues, ends and D or L forms follow the SMILES beside them.

One assay relates to Gαq mice. Briefly: Gαq overexpression-induced heart failure. The class given is in vivo, mouse. The following applies: administered from 12 to 16 weeks of age. An excerpt: It is anticipated that peptide conjugates, aromatic-cationic peptides or SPN10(s) (with or without aromatic-cationic peptides) will partially rescue Gαq overexpression-induced heart failure. Gαq protein is coupled to receptors for catecholamines and Ang II, all of which are known to be key mediators in hypertensive cardiovascular diseases. To extend these observations to a model of chronic catecholamine/Ang II stimulation, a genetic mouse model with cardiac specific overexpression of Gαq will be used, which causes heart failure in mice by 14-16 weeks of age. The Gαq mice in this study will have impairment of systolic function at 16 weeks age, which will be shown by a substantial decline in FS, with enlargement of the LV chamber, impairment of diastolic function indicated by decreased Ea/Aa, and worsening of myocardial performance index (MPI).

The test system of assay [1] is Caco-2 cells. The assay is described as follows: Example 25: mitochondrial membrane potential after t-BHP (TMRM, CLSM). The format is cell-based, human. The following applies: t-BHP 1 mM, 4 hours. Here is the method: (§1) Caco-2 cells will be treated with t-BHP (1 mM) alone or in the presence of peptide conjugates (0.1 μM); aromatic-cationic peptides (an equivalent molar dose of aromatic-cationic peptide based on the concentration of the aromatic-cationic peptide administered in the peptide conjugate treatment group); SPN10(s) (an equivalent molar dose of SPN10 based on the concentration of SPN10 administered in the peptide conjugate treatment group); or SPN10(s) in combination with aromatic-cationic peptides (e.g., an equivalent molar dose of SPN10 based on the concentration of SPN10 administered in the peptide conjugate treatment group and an equivalent molar dose of aromatic-cationic peptide based on the concentration of aromatic-cationic peptide administered in the peptide conjugate treatment group) for 4 hours, and then incubated with TMRM and examined under CLSM.

Assay [2] concerns Caco-2 cells. The assay is described as follows: Example 12: 3NP-induced mitochondrial depolarization (TMRM, CLSM). The following applies: 3NP 10 mM, 4 hours. The class given is cell-based, human. The procedure: as §1, with “3NP (10” for “t-BHP (1”, “by” for “under”, “CLSM. It is expected that 3NP-treated cells will display reduced fluorescence compared to control cells, which indicates mitochondrial depolarization.” for “CLSM.”

A further assay relates to Sprague-Dawley rats. Briefly: Example 38: acute renal injury caused by unilateral ureteral obstruction (UUO). The format is in vivo, rat. The procedure:
Sprague-Dawley rats will undergo unilateral ureteral ligation with a 4-0 silk suture through a midline abdominal incision under sterile conditions. Ureteral obstruction will be carried out by ligating the lower end of the left ureter, just above the ureterovesical junction. Peptide conjugates (1 mg/kg or 3 mg/kg; n=16); aromatic-cationic peptides (an equivalent molar dose of aromatic-cationic peptide based on the concentration of the aromatic-cationic peptide administered in the peptide conjugate treatment group); SPN10(s) (an equivalent molar dose of SPN10 based on the concentration of SPN10 administered in the peptide conjugate treatment group); SPN10(s) in combination with aromatic-cationic peptides (e.g., an equivalent molar dose of SPN10 based on the concentration of SPN10 administered in the peptide conjugate treatment group and an equivalent molar dose of aromatic-cationic peptide based on the concentration of aromatic-cationic peptide administered in the peptide conjugate treatment group); or control vehicle (n=16) will be administered intraperitoneally, one day prior to UUO and continuing for 14 days following UUO.
Renal Histology: Trichrome sections of paraffin embedded specimens will be examined by a board-certified pathologist (SVS, renal pathology specialist), and fibrosis scored on a scale of 0—+++.
Immunohistochemical Analysis: Immunohistochemical staining for macrophages will be carried out using a monoclonal antibody to ED-1 as previously described. Macrophages will be counted in 10 high-power fields (×400) by two independent investigators in a blinded fashion. Apoptosis will be measured by TUNEL assay as described in Example 37. The presence of fibroblasts will be examined using immunohistochemistry, as described above, using the DAKO #S100-A4 antibody (1:100 dilution). Antigen will be retrieved by incubating cells with Proteinase K for 20 minutes. The remaining immunoperoxidase protocol will be carried out according to routine procedures.
It is expected that S100-A4 staining will be present in spindle-shaped interstitial cells and round, inflammatory cells. Only spindle-shaped cells will be quantified. Staining for 8-OH dG will be done using Proteinase K for antigen retrieval and an antibody provided by the Japan Institute Control of Aging at a dilution of 1:200-1:500.
Polymerase Chain Reaction Analysis: Renal expression of heme oxygenase-1 (HO-1) will be measured by RT-PCR according to the following: Rat kidneys will be harvested and stored at −80° C. until use. Total RNA will be extracted using the Trizol (R)-Chloroform extraction procedure, and mRNA will be purified using the Oligotex mRNA extraction kit (Qiagen, Valencia, California, U.S.A.) according to manufacturer instructions. mRNA concentration and purity will be determined by measuring absorbance at 260 nm. RT-PCR will be performed using Qiagen One-step PCR kit (Qiagen, Valencia, California, U.S.A.) and an automated thermal cycler (ThermoHybrid, PX2). Thermal cycling will be carried out as follows: initial activation step for 15 minutes at 95° C. followed by 35 cycles of denaturation for 45 seconds at 94° C., annealing for 30 seconds at 60° C., extension for 60 seconds at 72° C. Amplification products will be separated on a 2% agarose gel electrophoresis, visualized by ethidium bromide staining, and quantified using Image J densitometric analysis software. GAPDH will be used as an internal control.

For `N=C(N)NCCC[C@H](NC(=O)[C@@H](N)Cc1c[nH]c2ccccc12)C(=O)N[C@@H](Cc1c[nH]c2ccccc12)C(=O)N[C@@H](CCCCN)C(N)=O` [SPN10, H-L-Trp-L-Arg-L-Trp-L-Lys-NH2] (H-WRWK-NH2), in the assay on Gαq mice, the LV chamber enlargement result is given as “slightly reduced”; the “systolic function and myocardial performance” value is “significantly ameliorate systolic function and improve myocardial performance”. In addition, the “mitochondrial depolarization caused by t-BHP” value in the assay with Caco-2 cells [1] was “protect against mitochondrial depolarization”. For the same compound, the “mitochondrial depolarization caused by 3NP” value in the assay with Caco-2 cells [2] is “protect against mitochondrial depolarization”. Moreover, the “tubular cell proliferation at the 1 mg/kg dose” value in the assay with Sprague-Dawley rats (1 mg/kg) is given as “decreased”. In the assay with Sprague-Dawley rats (1 mg/kg (conjugate) or equivalent molar dose), the “fibroblast infiltration in obstructed kidneys (FSP-1)” value was “significantly decrease the amount of fibroblast infiltration”. The “tubular apoptosis in obstructed kidneys” value in the assay on Sprague-Dawley rats (1 mg/kg (conjugate) or equivalent molar dose, 2 weeks of UUO) is reported as “significantly decrease tubular apoptosis”. In addition, the “macrophage infiltration in obstructed kidneys” value in the assay with Sprague-Dawley rats (1 mg/kg or 3 mg/kg (conjugate) or equivalent molar dose) was “significantly decrease macrophage infiltration”. Further, the “tubular cell proliferation at the 3 mg/kg dose” value in the assay on Sprague-Dawley rats (3 mg/kg) is “further decreased”. In the assay with Sprague-Dawley rats (14 days UUO), the “trichrome staining (fibrosis score), cortex of obstructed kidney” value is listed as 0-trace and the “trichrome staining (fibrosis score), medulla of obstructed kidney” value is on record as “tr—1+”. Besides, in the assay with Sprague-Dawley rats (RT-PCR), the “HO-1 expression in the obstructed kidney” value is listed as “decrease HO-1 expression”. Besides, in the assay on Sprague-Dawley rats (rat, in vivo), the medullary fibrosis entry is reported as “decrease medullary fibrosis”, the “number of 8-OH dG positive cells” value is “significantly reduced” and the “renal tubular proliferation in obstructed kidneys (PCNA)” value is recorded as “significant decrease in renal tubular proliferation”.
